Assay type in all cases: biochemical, rice (Oryza sativa var. Kinmaze)
Assay [1] has as its target T1, GST fusion S627I mutant ALS protein (Oryza sativa subsp. japonica, UniProt Q6K2E8, S627I).
T1 construct: an expression vector having the full-length wild type ALS cDNA incorporated into the Eco RI site of pGEX-2T; made in house; host or cells: E. coli JM109, pGEX 2T(ALS-S627I mutant); crude supernatant
In words: Herbicide sensitivity of ALS protein expressed in E. coli (crude enzyme solution), S627I. The settings on record: for RS ratio: S627I mutant vs wild type. As for the experimental part: (§1) ALS activity resulting from the mutant ALS protein contained in the eluted fractions apportioned into each test tube for apportioning was measured as follows. A reaction solution to be used in a measurement reaction was prepared by mixing an eluted fraction to be measured with a solution comprising 20 mM sodium pyruvate, 0.5 mM TPP, 0.5 mM MgCl2, 10 μM FAD and 20 mM potassium phosphate buffer (pH 7.5). One ml of this reaction solution was used. After the eluted fraction to be measured was added, the measurement reaction was performed at 30° C. for 40 to 60 minutes. Then, the reaction was stopped by addition of 0.1 ml of 6N sulfuric acid (or 0.25 N sodium hydroxide).
(§2) After the reaction was stopped, the reaction solution was incubated at 60° C. for 10 minutes, thereby converting acetolactate contained in the reaction solution to acetoin.
(§3) Then, to quantify acetoin contained in the reaction solution, 1 ml of 0.5% (w/v) creatine and 1 ml of 5% (w/v) α-naphthol dissolved in 2.5 N sodium hydroxide was added to the reaction solution, followed by incubation at 37° C. for 10 minutes. Acetoin was then quantified by color comparison of the absorbance (at 525 nm) of the reaction solution, thereby evaluating ALS activity. In addition, since the reaction solution contained a small amount of sodium pyruvate, reaction time 0 was used as control.
(§4) E. coli transformed with pGEX-2T(ALS-wild) constructed in Example 3(5), E. coli transformed with pGEX-2T(ALS-W548L mutant) constructed in Example 5, E. coli transformed with pGEX-2T(ALS-S627I mutant) constructed in Example 5, E. coli transformed with pGEX-2T(ALS P171H mutant) constructed in Example 6, E. coli transformed with pGEX-2T(ALS R172S mutant) constructed in Example 6, E. coli transformed with pGEX-2T(ALS P171H, R172S mutant) constructed in Example 7, E. coli transformed with pGEX-2T(ALS-P171H, W548L mutant) constructed in Example 8, E. coli transformed with pGEX-2T(ALS-P171H, S627I mutant) constructed in Example 8, and E. coli transformed with pGEX-2T(ALS-P171H, W548L, S627I mutant) constructed in Example 9 were respectively shake-cultured (pre-culture) at 27° C. in 2 ml of LB liquid medium containing ampicillin. These types of E. coli were respectively cultured in 250 ml of LB liquid medium containing ampicillin using 1 ml of the pre-culture solution. After culturing overnight, 1 mM IPTG was added to the media, and then culturing was performed for a further 3 to 4 hours, so that the expression of GST fusion protein was induced. In addition, the cells were stored at −80° C. after washing.
(§5) Preparation and purification of ALS from E. coli were performed by the following method. First, the pellet of the transformant E. coli stored at −80° C. was suspended in ALS extraction buffer (potassium phosphate buffer (pH 7.5) containing 30% glycerol and 0.5 mM MgCl2). Specifically, 2.5 ml of the buffer was added to the pellet obtained from 50 ml of the culture solution. The suspension was subjected to ultrasonication (Heat Systems-Ultrasonics, Sonicator W-225R, micro chip, output control 8, interval of approximately 1 second, twice (40 seconds each)), and subjected to centrifugation at 15000×g, 4° C. for 20 minutes, thereby obtaining the supernatant as a crude enzyme solution.
(§6) Herbicide sensitivity of the wild type ALS protein and that of mutant ALS protein were examined using the 9 types of crude enzyme solutions obtained in Example 10. Herbicide sensitivity test was performed according to procedures almost the same as those in Example 2. However, in this example, reaction temperature was 37° C., reaction time was 30 minutes, and 10 mM valine was added to the reaction solution to inhibit ALS activity derived from E. coli. Further, three types of herbicides, bispyribac-sodium, pyrithiobac-sodium, and pyriminobac, were used as PC herbicides; chlorsulfuron was used as a sulfonylurea herbicide; and imazaquin was used as an imidazolinon herbicide. […]

Assay [2] deals with T2, GST fusion W548L mutant ALS protein (Oryza sativa subsp. japonica, UniProt Q6K2E8, W548L).
T2 construct: an expression vector having the full-length wild type ALS cDNA incorporated into the Eco RI site of pGEX-2T; made in house; host or cells: E. coli JM109, pGEX 2T(ALS-W548L mutant); crude supernatant
In words: Herbicide sensitivity of ALS protein expressed in E. coli (crude enzyme solution), W548L. The settings on record: for RS ratio: W548L mutant vs wild type. As for the experimental part: as §1, §2, §3, §4, §5, §6

In assay [3] the target is T3, GST fusion P171H/R172S mutant ALS protein (Oryza sativa subsp. japonica, UniProt Q6K2E8, P171H/R172S).
T3 construct: made in house; host or cells: E. coli JM109, pGEX-2T(ALS P171H, R172S mutant); crude supernatant
In words: Herbicide sensitivity of ALS protein expressed in E. coli (crude enzyme solution), P171H/R172S. The settings on record: for RS ratio/ predicted RS ratio / Predicted RS ratio: P171H/R172S mutant; for RS ratio: P171H/R172S mutant vs wild type; for Predicted RS ratio: product of RS ratios of the 1-point mutants. As for the experimental part: as §1, §2, §3, §4, §5, §6

T3 sequence (Q6K2E8 44-644 P171H/R172S): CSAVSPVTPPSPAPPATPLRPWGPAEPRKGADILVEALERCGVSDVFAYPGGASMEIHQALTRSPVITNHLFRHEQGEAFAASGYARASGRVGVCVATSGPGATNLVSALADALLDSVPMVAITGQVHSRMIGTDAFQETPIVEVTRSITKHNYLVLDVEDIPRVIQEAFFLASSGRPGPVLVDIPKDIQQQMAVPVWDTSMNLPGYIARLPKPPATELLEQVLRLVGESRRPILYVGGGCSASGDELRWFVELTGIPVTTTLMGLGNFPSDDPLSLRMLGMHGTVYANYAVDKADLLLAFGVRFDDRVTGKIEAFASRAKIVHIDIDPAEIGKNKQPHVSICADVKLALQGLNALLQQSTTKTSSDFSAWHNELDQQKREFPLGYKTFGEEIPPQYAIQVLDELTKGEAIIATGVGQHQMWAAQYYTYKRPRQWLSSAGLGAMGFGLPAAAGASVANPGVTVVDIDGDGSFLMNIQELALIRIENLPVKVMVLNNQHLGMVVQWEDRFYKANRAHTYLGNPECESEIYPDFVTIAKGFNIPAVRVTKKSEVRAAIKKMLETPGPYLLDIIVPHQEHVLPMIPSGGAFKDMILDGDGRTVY
T2 sequence (Q6K2E8 44-644 W548L): as the sequence (Q6K2E8 44-644 P171H/R172S) above, with H128P, S129R, W505L counted along it
T1 sequence (Q6K2E8 44-644 S627I): as the sequence (Q6K2E8 44-644 P171H/R172S) above, with H128P, S129R, S584I counted along it

For orientation: IC50 means the concentration needed to halve the response being measured. A lower IC50 goes with greater potency. In assay [1], `CC(C)C1(C)N=C(c2nc3ccccc3cc2C(=O)O)NC1=O` (centres unmarked) [imazaquin] registered an IC50 of 15 µM. Further, the RS ratio in assay [2] was >45. Besides, the inhibition at 100 µM in assay [2] (read-out: inhibition % at the highest concentration among the concentrations tested, W548L mutant, in 100 μM) came out at 14%. In addition, in assay [3], the midpoint of inhibition, the IC50, lay at 3.9 µM; the “RS ratio/ predicted RS ratio” value is 1.2; the RS ratio stood at 1.8; the “Predicted RS ratio” value is 1.5.
Take `COc1nc(C)nc(NC(=O)NS(=O)(=O)c2ccccc2Cl)n1` [chlorsulfuron]: in assay [1], the IC50 was 0.031 µM and the RS ratio came to 2.4. Also, in assay [2], the IC50 was determined as 9.9 µM and the RS ratio was 760. Besides, in assay [3], the IC50 turned out to be 5.5 µM, the “RS ratio/ predicted RS ratio” value is given as 5.8, the RS ratio was 420 and the “Predicted RS ratio” value was 72.
For `COc1cc(OC)nc(Oc2cccc(Oc3nc(OC)cc(OC)n3)c2C(=O)O)n1` [bispyribac-sodium], in assay [1], the IC50 was 0.26 µM and the RS ratio is recorded as 41. Also, in assay [2], the IC50 came to 3.3 µM and the RS ratio came out at 520. Moreover, in assay [3], half-maximal inhibition (IC50) required 0.048 µM, the “RS ratio/ predicted RS ratio” value is given as 0.89, the RS ratio was found to be 7.6 and the “Predicted RS ratio” value was 8.5.

Values taken from US8030547B2, “Gene coding for acetolactate synthase” (priority 2002, dated 2011).
